Results as given in patent publication US9944699B2, “In vitro method for identifying compounds of the Nav 1.9 sodium channel intended for the treatment of an inflammatory skin disease” (GALDERMA RESEARCH & DEVELOPMENT, priority 2013, dated 2018).
Entries after “also recorded” stand apart in the source; their conditions may differ.

Assays:
[1] = molecular target: Nav 1.9 (Homo sapiens, UniProt Q9UI33); details: cited from earlier work
[2] = molecular target: Nav 1.8 (Homo sapiens, UniProt Q9Y5Y9); details: cited from earlier work
[3] = molecular target: Nav 1.5 (Homo sapiens, UniProt Q14524); details: cited from earlier work
[4] = test system: primary cultures of neurones from spinal ganglia of KO mice for Nav 1.9; experiment: Release of CGRP by primary neurone cultures after treatment with capsaicin (ELISA), Nav 1.9 KO mice; format: cell-based, mouse; details: capsaicin 300 nM, 15 min; neurone cultures from Nav 1.9 KO mice; versus without treatment

Chain of Nav 1.9 (Q9UI33 whole entry, looked up): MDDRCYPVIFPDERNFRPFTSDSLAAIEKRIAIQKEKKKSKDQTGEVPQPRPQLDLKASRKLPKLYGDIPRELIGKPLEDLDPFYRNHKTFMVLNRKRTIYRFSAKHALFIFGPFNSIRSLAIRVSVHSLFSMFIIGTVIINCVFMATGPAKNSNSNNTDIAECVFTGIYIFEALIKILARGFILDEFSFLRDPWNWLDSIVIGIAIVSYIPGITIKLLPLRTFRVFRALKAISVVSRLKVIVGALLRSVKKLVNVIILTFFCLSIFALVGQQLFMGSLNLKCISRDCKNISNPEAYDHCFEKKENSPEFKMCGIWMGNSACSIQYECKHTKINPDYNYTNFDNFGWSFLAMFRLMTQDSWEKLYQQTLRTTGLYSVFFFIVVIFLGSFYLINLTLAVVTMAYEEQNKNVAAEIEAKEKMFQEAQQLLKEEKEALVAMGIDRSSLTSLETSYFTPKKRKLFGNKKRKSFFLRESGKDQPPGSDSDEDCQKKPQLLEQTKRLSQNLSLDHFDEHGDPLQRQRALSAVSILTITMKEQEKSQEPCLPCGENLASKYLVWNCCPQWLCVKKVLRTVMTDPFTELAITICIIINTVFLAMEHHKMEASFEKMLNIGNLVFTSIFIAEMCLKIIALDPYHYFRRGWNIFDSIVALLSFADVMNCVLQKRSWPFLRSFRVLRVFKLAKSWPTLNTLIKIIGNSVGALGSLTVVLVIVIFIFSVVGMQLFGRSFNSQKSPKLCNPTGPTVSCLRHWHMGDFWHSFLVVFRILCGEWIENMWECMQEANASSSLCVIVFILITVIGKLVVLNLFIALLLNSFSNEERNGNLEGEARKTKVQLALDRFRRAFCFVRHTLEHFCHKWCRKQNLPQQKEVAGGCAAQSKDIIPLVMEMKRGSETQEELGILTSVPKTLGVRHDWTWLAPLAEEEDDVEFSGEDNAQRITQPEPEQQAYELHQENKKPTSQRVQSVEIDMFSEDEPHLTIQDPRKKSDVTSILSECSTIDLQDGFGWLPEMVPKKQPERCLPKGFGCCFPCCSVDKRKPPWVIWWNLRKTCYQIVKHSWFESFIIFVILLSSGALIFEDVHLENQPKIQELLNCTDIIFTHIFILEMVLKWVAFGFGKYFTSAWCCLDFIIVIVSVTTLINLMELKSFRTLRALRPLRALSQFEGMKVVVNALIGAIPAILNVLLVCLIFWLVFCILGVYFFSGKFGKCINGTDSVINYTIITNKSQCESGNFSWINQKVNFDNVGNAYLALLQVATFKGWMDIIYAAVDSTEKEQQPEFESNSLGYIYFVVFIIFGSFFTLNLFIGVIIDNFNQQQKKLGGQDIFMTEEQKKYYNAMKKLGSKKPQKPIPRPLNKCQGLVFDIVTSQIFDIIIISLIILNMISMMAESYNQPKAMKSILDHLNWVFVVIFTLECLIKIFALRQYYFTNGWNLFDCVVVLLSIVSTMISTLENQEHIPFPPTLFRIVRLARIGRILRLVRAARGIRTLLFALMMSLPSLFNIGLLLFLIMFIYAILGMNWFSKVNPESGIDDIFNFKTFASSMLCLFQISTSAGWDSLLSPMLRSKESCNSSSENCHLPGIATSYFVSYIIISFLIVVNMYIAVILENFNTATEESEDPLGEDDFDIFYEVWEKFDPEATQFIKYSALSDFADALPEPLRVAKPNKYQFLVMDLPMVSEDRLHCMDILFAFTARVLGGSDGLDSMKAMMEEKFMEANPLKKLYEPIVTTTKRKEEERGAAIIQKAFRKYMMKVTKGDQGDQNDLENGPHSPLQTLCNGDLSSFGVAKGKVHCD
Chain of Nav 1.8 (Q9Y5Y9 whole entry, looked up): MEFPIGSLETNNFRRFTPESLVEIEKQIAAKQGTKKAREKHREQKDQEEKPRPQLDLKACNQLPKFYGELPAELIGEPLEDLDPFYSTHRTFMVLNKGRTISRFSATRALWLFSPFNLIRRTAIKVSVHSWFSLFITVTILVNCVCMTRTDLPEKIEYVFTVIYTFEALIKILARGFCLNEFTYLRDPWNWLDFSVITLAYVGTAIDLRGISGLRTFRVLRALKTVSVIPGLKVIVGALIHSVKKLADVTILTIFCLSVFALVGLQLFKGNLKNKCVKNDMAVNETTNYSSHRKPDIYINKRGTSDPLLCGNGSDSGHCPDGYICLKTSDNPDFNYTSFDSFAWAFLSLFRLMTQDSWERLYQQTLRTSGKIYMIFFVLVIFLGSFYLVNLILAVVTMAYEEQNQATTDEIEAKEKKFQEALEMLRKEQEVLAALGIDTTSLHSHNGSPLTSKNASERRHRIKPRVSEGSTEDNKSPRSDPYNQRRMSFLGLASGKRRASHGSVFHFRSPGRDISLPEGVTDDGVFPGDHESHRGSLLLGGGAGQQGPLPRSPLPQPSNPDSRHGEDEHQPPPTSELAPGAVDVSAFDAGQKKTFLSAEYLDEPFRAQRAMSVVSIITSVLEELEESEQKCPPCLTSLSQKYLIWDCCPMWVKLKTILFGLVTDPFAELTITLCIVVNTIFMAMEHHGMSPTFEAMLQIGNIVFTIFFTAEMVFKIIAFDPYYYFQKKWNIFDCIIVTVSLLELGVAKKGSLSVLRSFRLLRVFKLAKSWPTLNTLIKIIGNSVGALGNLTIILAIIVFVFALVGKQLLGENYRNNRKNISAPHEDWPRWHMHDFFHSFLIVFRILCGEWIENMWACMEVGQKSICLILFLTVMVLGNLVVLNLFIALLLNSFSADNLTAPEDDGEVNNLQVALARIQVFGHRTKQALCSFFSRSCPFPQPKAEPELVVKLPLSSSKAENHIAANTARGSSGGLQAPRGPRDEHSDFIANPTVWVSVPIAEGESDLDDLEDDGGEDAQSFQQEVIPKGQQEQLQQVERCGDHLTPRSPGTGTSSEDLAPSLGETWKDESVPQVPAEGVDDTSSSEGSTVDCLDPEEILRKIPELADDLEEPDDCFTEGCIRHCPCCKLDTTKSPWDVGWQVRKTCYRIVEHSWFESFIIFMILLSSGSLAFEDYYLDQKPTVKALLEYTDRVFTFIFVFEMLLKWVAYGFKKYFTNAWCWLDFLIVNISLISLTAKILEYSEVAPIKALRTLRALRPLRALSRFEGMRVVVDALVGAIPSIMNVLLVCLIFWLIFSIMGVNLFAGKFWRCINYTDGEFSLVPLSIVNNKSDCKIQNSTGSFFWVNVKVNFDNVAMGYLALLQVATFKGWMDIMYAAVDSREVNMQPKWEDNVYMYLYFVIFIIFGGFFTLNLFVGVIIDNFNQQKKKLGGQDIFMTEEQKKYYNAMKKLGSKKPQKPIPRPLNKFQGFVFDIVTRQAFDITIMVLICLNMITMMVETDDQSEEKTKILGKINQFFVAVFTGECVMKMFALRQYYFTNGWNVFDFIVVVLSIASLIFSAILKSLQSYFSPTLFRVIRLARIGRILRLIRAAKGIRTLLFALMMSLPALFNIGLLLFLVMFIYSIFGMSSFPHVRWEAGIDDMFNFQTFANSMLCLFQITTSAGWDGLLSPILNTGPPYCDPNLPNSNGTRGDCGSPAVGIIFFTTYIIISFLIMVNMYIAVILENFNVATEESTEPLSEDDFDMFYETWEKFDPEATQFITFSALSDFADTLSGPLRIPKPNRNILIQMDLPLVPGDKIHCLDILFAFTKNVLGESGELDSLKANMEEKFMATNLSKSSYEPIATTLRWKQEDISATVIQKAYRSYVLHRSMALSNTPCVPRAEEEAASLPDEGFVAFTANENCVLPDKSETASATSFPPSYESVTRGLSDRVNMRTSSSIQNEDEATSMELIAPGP

Row | SMILES | sensitivity to tetrodotoxin (TTX) [1] | EC50 ([1]; read-out: EC50 of the TTX for Nav 1.9) [µM] | sensitivity to tetrodotoxin (TTX) [2] | sensitivity to tetrodotoxin (TTX) [3] | variation in the amount of CGRP released in the supernatant [4]
1 | NC1=N[C@H](O)[C@H]2[C@H]3O[C@]4(O)O[C@@H]([C@@H](O)[C@@]2(N1)[C@@H]4O)[C@]3(O)CO [TTX, tetrodotoxin] | resistant | ~200 | resistant | resistant | 
2 | COc1cc(CNC(=O)CCCC/C=C/C(C)C)ccc1O [capsaicin] |  |  |  |  | no variation; also recorded: no increase
